Each structure is given as a SMILES string.

The subject of one test is Daudi cells (AID positive). Description: Compound primary screening: cell death in AID positive Daudi cells (Cell-Titer Glo, Day 7). The class given is cell-based. The conditions noted are these: Homo sapiens, 168 h; Daudi cells, AID positive; cell death on Day 7, Cell-Titer Glo; read-out: Cellular activity in AID + (Daudi). Summed up:
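AID-positive Daudi cells were seeded at 1250 cells per well and treated with serially diluted compound delivered from a DMSO/media master plate. Cultures were incubated at 37 °C, and cell death was measured on Day 7 with Cell-Titer Glo luminescence.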
Turning to `CCNS(=O)(=O)c1cc(Nc2ncc(C(C)C)[nH]2)ccc1-c1cnc([C@H]2CC[C@H](NC(=O)OC(C)C)CC2)s1` [Compound 142, isopropyl trans-N-[4-[5-[2-(ethylsulfamoyl)-4-[(5-isopropyl-1H-imidazol-2-yl)amino]phenyl]thiazol-2-yl]cyclohexyl]carbamate], the EC50 was in the range of 1000 to 10000 nM.

With `CCNS(=O)(=O)c1cc(Nc2ccc(C(C)C)nn2)ccc1-c1cnc([C@H]2CC[C@H](NC(=O)OC(C)C)CC2)s1` [Compound 143, isopropyl trans-N-[4-[5-[2-(ethylsulfamoyl)-4-[(6-isopropylpyridazin-3-yl)amino]phenyl]thiazol-2-yl]cyclohexyl]carbamate], the EC50 is below 100 nM.

For `CCNS(=O)(=O)c1cc(NC2CNC2)ccc1-c1cnc([C@H]2CC[C@H](NC(=O)OC(C)C)CC2)s1` [Compound 144, isopropyl trans-N-[4-[5-[4-(azetidin-3-ylamino)-2-(ethyl-sulfamoyl)phenyl]thiazol-2-yl]cyclohexyl]carbamate], the EC50 was in the range of 100 to 1000 nM.

As for `CCNS(=O)(=O)c1cc(NC2CN(CC(C)C)C2)ccc1-c1cnc([C@H]2CC[C@H](NC(=O)OC(C)C)CC2)s1` [Compound 145, isopropyl trans-N-[4-[5-[2-(ethylsulfamoyl)-4-[(1-isobutyl-azetidin-3-yl)amino]phenyl]thiazol-2-yl]cyclohexyl]carbamate], the EC50 lay within 100 to 1000 nM.

With `CCNS(=O)(=O)c1cc(NC2CN(C(=O)C(C)C)C2)ccc1-c1cnc([C@H]2CC[C@H](NC(=O)OC(C)C)CC2)s1` [Compound 146, isopropyl trans-N-[4-[5-[2-(ethylsulfamoyl)-4-[[1-(2-methylpropanoyl)azetidin-3-yl]amino]phenyl]thiazol-2-yl]cyclohexyl]carbamate], the EC50 is below 100 nM.

In the case of `CCNS(=O)(=O)c1cc(NC2(C)CNC2)ccc1-c1cnc([C@H]2CC[C@H](NC(=O)OC(C)C)CC2)s1` [Compound 147, isopropyl trans-N-[4-[5-[2-(ethylsulfamoyl)-4-[(3-methylazetidin-3-yl)amino]phenyl]thiazol-2-yl]cyclohexyl]carbamate], the EC50 is 1000 to 10000 nM.

As to `CC(C)OC(=O)N[C@H]1CC[C@H](c2ncc(-c3ccc(Nc4ncc[nH]4)cc3S(=O)(=O)N3CCC3)s2)CC1` [Compound 148, isopropyl trans-N-[4-[5-[2-(azetidin-1-ylsulfonyl)-4-(1H-imidazol-2-ylamino)phenyl]thiazol-2-yl]cyclohexyl]carbamate], the EC50 was below 100 nM.

As to `CCNS(=O)(=O)c1cc(Nc2cn[nH]n2)ccc1-c1cnc([C@H]2CC[C@H](NC(=O)OC(C)C)CC2)s1` [Compound 149, isopropyl trans-N-[4-[5-[2-(ethylsulfamoyl)-4-(2H-triazol-4-ylamino)phenyl]thiazol-2-yl]cyclohexyl]carbamate], the EC50 was below 100 nM.

Take `CCNS(=O)(=O)c1cc(N(C)c2ncc[nH]2)ccc1-c1cnc([C@H]2CC[C@H](NC(=O)OC(C)C)CC2)s1` [Compound 150, isopropyl trans-N-[4-[5-[2-(ethylsulfamoyl)-4-[1H-imidazol-2-yl(methyl)amino]phenyl]thiazol-2-yl]cyclohexyl]carbamate]: the EC50 was in the range of 100 to 1000 nM.

In the case of `CC(C)OC(=O)N[C@H]1CC[C@H](c2ncc(-c3ccc(Nc4nnc[nH]4)cc3S(=O)(=O)NC(C)(C)C)s2)CC1` [Compound 151, isopropyl trans-N-[4-[5-[2-(tert-butylsulfamoyl)-4-(4H-1,2,4-triazol-3-ylamino)phenyl]thiazol-2-yl]cyclohexyl]carbamate], the EC50 was below 100 nM.

On to `CCNS(=O)(=O)c1cc(Nc2nnc[nH]2)ccc1-c1cnc([C@H]2CC[C@H](NC(=O)OC(C)C)CC2)s1` [Compound 152, isopropyl trans-N-[4-[5-[2-(ethylsulfamoyl)-4-(4H-1,2,4-triazol-3-ylamino)phenyl]thiazol-2-yl]cyclohexyl]carbamate], for which the EC50 is below 100 nM.

Take `CC(C)OC(=O)N[C@H]1CC[C@H](c2ncc(-c3ccc(Nc4ncco4)cc3S(=O)(=O)N3CCCC3)s2)CC1` [Compound 153, isopropyl trans-[4-[5-[4-(oxazol-2-ylamino)-2-pyrrolidin-1-ylsulfonyl-phenyl]thiazol-2-yl]cyclohexyl]carbamate]: the EC50 was below 100 nM.

As for `CCNS(=O)(=O)c1cc(Nc2nccn2C(C)C)ccc1-c1cnc([C@H]2CC[C@H](NC(=O)OC(C)C)CC2)s1` [Compound 154, isopropyl trans-N-[4-[5-[2-(ethylsulfamoyl)-4-[(1-isopropylimidazol-2-yl)amino]phenyl]thiazol-2-yl]cyclohexyl]carbamate], the EC50 was below 100 nM.

Regarding `CCNS(=O)(=O)c1cc(Nc2ccnc(Cl)n2)ccc1-c1cnc([C@H]2CC[C@H](NC(=O)OC(C)C)CC2)s1` [Compound 155, isopropyl trans-N-[4-[5-[4-[(2-chloropyrimidin-4-yl)amino]-2-(ethylsulfamoyl)phenyl]thiazol-2-yl]cyclohexyl]carbamate], the EC50 fell in the range of 100 to 1000 nM.

On to `CCNS(=O)(=O)c1cc(Nc2ccnc(=O)[nH]2)ccc1-c1cnc([C@H]2CC[C@H](NC(=O)OC(C)C)CC2)s1` [Compound 156, isopropyl trans-N-[4-[5-[2-(ethylsulfamoyl)-4-[(2-hydroxypyrimidin-4-yl)amino]phenyl]thiazol-2-yl]cyclohexyl]carbamate], for which the EC50 lay in the range of 100 to 1000 nM.

As to `CCNS(=O)(=O)c1cc(Nc2ccc(CC)nn2)ccc1-c1cnc([C@H]2CC[C@H](NC(=O)OC(C)C)CC2)s1` [Compound 157, isopropyl trans-N-[4-[5-[4-[(6-ethylpyridazin-3-yl)amino]-2-(ethylsulfamoyl)phenyl]thiazol-2-yl]cyclohexyl]carbamate], the EC50 was below 100 nM.

In the case of `CCNS(=O)(=O)c1cc(Nc2cc(CC)cnn2)ccc1-c1cnc([C@H]2CC[C@H](NC(=O)OC(C)C)CC2)s1` [Compound 158, isopropyl trans-N-[4-[5-[4-[(5-ethylpyridazin-3-yl)amino]-2-(ethylsulfamoyl)phenyl]thiazol-2-yl]cyclohexyl]carbamate], the EC50 is 100 to 1000 nM.

For `CCNS(=O)(=O)c1cc(Nc2ccc(Cl)nn2)ccc1-c1cnc([C@H]2CC[C@H](NC(=O)OC(C)C)CC2)s1` [Compound 159, isopropyl trans-N-[4-[5-[4-[(6-chloropyridazin-3-yl)amino]-2-(ethylsulfamoyl)phenyl]thiazol-2-yl]cyclohexyl]carbamate], the EC50 is below 100 nM.

`CCNS(=O)(=O)c1cc(Nc2ccc(=O)[nH]n2)ccc1-c1cnc([C@H]2CC[C@H](NC(=O)OC(C)C)CC2)s1` [Compound 160, isopropyl trans-N-[4-[5-[2-(ethylsulfamoyl)-4-[(6-oxo-1H-pyridazin-3-yl)amino]phenyl]thiazol-2-yl]cyclohexyl]carbamate]: the EC50 lay in the range of 100 to 1000 nM.

On to `CCNS(=O)(=O)c1cc(Nc2cc(C)cnn2)ccc1-c1cnc([C@H]2CC[C@H](NC(=O)OC(C)C)CC2)s1` [Compound 161, isopropyl trans-N-[4-[5-[2-(ethylsulfamoyl)-4-[(5-methylpyridazin-3-yl)amino]phenyl]thiazol-2-yl]cyclohexyl]carbamate], for which the EC50 is below 100 nM.

Staying with this test, now noted: Homo sapiens, Daudi, 168 h, read-out: Cellular activity in AID + (Daudi).
As to `CCNS(=O)(=O)c1cc(Nc2ncc(C)[nH]2)ccc1-c1cnc([C@H]2CC[C@H](NC(=O)OC(C)C)CC2)s1` [Compound 141, isopropyl trans-N-[4-[5-[2-(ethylsulfamoyl)-4-[(5-methyl-1H-imidazol-2-yl)amino]phenyl]thiazol-2-yl]cyclohexyl]carbamate], the EC50 is 1000 to 10000 nM.

The values above are taken from US11932636B2, “RAD51 inhibitors” (Cyteir Therapeutics, Inc., priority 2019, dated 2024).
